Laboratory results as given in patent US11980596B2 (priority 2017, dated 2024).

Test system: subjects with MDD at imminent risk for suicide
[1] = esketamine 84 mg, double-blind phase, N = 35

Procedure: The study consisted of a screening evaluation performed within 24 hours (or up to 48 hours upon consultation with the Sponsor's medical monitor) prior to Day 1 dose, immediately followed by a 25-day double-blind treatment phase (Day 1 to 25) with twice a week dosing, and a 56-day follow up phase (Day 26 to Day 81). The study was designed as a POC study and therefore a two-sided 0.20 significance level was used.
Among 68 randomized subjects, 66 were included in the safety analysis set (defined as receiving at least one dose of study medication in the double-blind phase). […] All safety subjects (N=66) were included in the intent-to-treat (ITT) analysis set (defined as receiving at least one dose of study medication during the double-blind phase and having both the baseline and the Day 1, 4-hour postdose evaluation for the MADRS total score). Forty-nine subjects were included in the safety (FU) analysis set (defined as all subjects who have at least 1 visit during the follow up phase).

CN[C@]1(c2ccccc2Cl)CCCCC1=O [esketamine, (S)-2-(2-chlorophenyl)-2-(methylamino)cyclohexanone]
13: TEAE Nausea, no. subjects [1]
20: TEAE Psychiatric disorders, no. subjects [1]
(34.3%): TEAE Dizziness, % of subjects [1]
10: TEAE General disorders and administration site conditions, no. subjects [1]
33 (94.3%) subjects (%): TEAE [1]
1: TEAE Flatulence, no. subjects [1] | TEAE Infections and infestations, no. subjects [1] | TEAE Nasal congestion, no. subjects [1] | TEAE Rash, no. subjects [1] | TEAE Renal and urinary disorders, no. subjects [1]
(5.7%): TEAE Acne, % of subjects [1] | TEAE Blood pressure increased, % of subjects [1] | TEAE Diplopia, % of subjects [1] | TEAE Dizziness postural, % of subjects [1] | TEAE Fatigue, % of subjects [1] | TEAE Feeling cold, % of subjects [1] | TEAE Hyperacusis, % of subjects [1] | TEAE Hyperhidrosis, % of subjects [1] | TEAE Hypoesthesia oral, % of subjects [1] | TEAE Oropharyngeal pain, % of subjects [1] | TEAE Paresthesia oral, % of subjects [1] | TEAE Pharyngeal hypoesthesia, % of subjects [1] | TEAE Suicidal ideation, % of subjects [1] | TEAE Tinnitus, % of subjects [1] | TEAE Weight increased, % of subjects [1]
5 (13.9%) subjects (%): Withdrawn from double-blind phase: Adverse event (esketamine 84 mg, all randomized analysis set, N = 36)
6: TEAE Anxiety, no. subjects [1] | TEAE Paresthesia, no. subjects [1] | TEAE Sedation, no. subjects [1]
37.1%: TEAE: nausea (84 mg, double-blind phase)
12: TEAE Dizziness, no. subjects [1]
5: TEAE Investigations, no. subjects [1] | TEAE Skin and subcutaneous tissue disorders, no. subjects [1]
0 subjects (%): TEAE leading to death [1] | TEAE leading to study discontinuation: Dissociative disorder [1]
11: TEAE Dissociation, no. subjects [1] | TEAE Dysgeusia, no. subjects [1] | TEAE Headache, no. subjects [1]
(25.7%): TEAE Ear and labyrinth disorders, % of subjects [1] | TEAE Respiratory, thoracic and mediastinal disorders, % of subjects [1]
(2.9%): TEAE Flatulence, % of subjects [1] | TEAE Infections and infestations, % of subjects [1] | TEAE Nasal congestion, % of subjects [1] | TEAE Rash, % of subjects [1] | TEAE Renal and urinary disorders, % of subjects [1]
(14.3%): TEAE Investigations, % of subjects [1] | TEAE Skin and subcutaneous tissue disorders, % of subjects [1]
(37.1%): TEAE Nausea, % of subjects [1]
5 subjects: Discontinued from the double-blind phase due to (treatment-emergent) adverse events (84 mg)
4 (11.4%) subjects (%): 1 or more serious TEAE [1] | Serious TEAE: Psychiatric disorders [1]
2: TEAE Acne, no. subjects [1] | TEAE Blood pressure increased, no. subjects [1] | TEAE Diplopia, no. subjects [1] | TEAE Dizziness postural, no. subjects [1] | TEAE Fatigue, no. subjects [1] | TEAE Feeling cold, no. subjects [1] | TEAE Hyperacusis, no. subjects [1] | TEAE Hyperhidrosis, no. subjects [1] | TEAE Hypoesthesia oral, no. subjects [1] | TEAE Oropharyngeal pain, no. subjects [1] | TEAE Paresthesia oral, no. subjects [1] | TEAE Pharyngeal hypoesthesia, no. subjects [1] | TEAE Suicidal ideation, no. subjects [1] | TEAE Tinnitus, no. subjects [1] | TEAE Weight increased, no. subjects [1]
(28.6%): TEAE General disorders and administration site conditions, % of subjects [1]
5 (14.3%) subjects (%): TEAE leading to drug withdrawn [1]
(20.0%): TEAE Eye disorders, % of subjects [1] | TEAE Vomiting, % of subjects [1]
20.0%: TEAE: vomiting (84 mg, double-blind phase)
19: TEAE Gastrointestinal disorders, no. subjects [1]
0: TEAE Abdominal pain, no. subjects [1] | TEAE Blepharospasm, no. subjects [1] | TEAE Constipation, no. subjects [1] | TEAE Epistaxis, no. subjects [1] | TEAE Intranasal paranesthesia, no. subjects [1] | TEAE Panic attack, no. subjects [1] | TEAE Pollakiuria, no. subjects [1] | TEAE Rhinalgia, no. subjects [1] | TEAE Rhinorrhoea, no. subjects [1] | TEAE Toothache, no. subjects [1] | TEAE Upper respiratory tract infection, no. subjects [1]
(71.4%): TEAE Nervous system disorders, % of subjects [1]
7: TEAE Eye disorders, no. subjects [1] | TEAE Vomiting, no. subjects [1]
(31.4%): TEAE Dissociation, % of subjects [1] | TEAE Dysgeusia, % of subjects [1] | TEAE Headache, % of subjects [1]
9: TEAE Ear and labyrinth disorders, no. subjects [1] | TEAE Respiratory, thoracic and mediastinal disorders, no. subjects [1]
3: TEAE Agitation, no. subjects [1] | TEAE Diarrhea, no. subjects [1] | TEAE Dry mouth, no. subjects [1] | TEAE Feeling abnormal, no. subjects [1] | TEAE Hypoesthesia, no. subjects [1] | TEAE Insomnia, no. subjects [1] | TEAE Nasal discomfort, no. subjects [1] | TEAE Throat irritation, no. subjects [1] | TEAE Vision blurred, no. subjects [1]
(8.6%): TEAE Agitation, % of subjects [1] | TEAE Diarrhea, % of subjects [1] | TEAE Dry mouth, % of subjects [1] | TEAE Feeling abnormal, % of subjects [1] | TEAE Hypoesthesia, % of subjects [1] | TEAE Insomnia, % of subjects [1] | TEAE Nasal discomfort, % of subjects [1] | TEAE Throat irritation, % of subjects [1] | TEAE Vision blurred, % of subjects [1]
(17.1%): TEAE Anxiety, % of subjects [1] | TEAE Paresthesia, % of subjects [1] | TEAE Sedation, % of subjects [1]
1 subjects: Subjects with a serious adverse event (84 mg group, follow up phase)
25: TEAE Nervous system disorders, no. subjects [1]
(57.1%): TEAE Psychiatric disorders, % of subjects [1]
(11.4%): TEAE Euphoric mood, % of subjects [1] | TEAE Somnolence, % of subjects [1] | TEAE Vertigo, % of subjects [1]
2 (5.7%) subjects (%): Serious TEAE: Suicidal ideation [1]
31.4%: TEAE: dissociation (84 mg, double-blind phase) | TEAE: dysgeusia (84 mg, double-blind phase) | TEAE: headache (84 mg, double-blind phase)
4: TEAE Euphoric mood, no. subjects [1] | TEAE Somnolence, no. subjects [1] | TEAE Vertigo, no. subjects [1]
(54.3%): TEAE Gastrointestinal disorders, % of subjects [1]
1 (2.9%) subjects (%): Serious TEAE: Agitation [1] | Serious TEAE: Depressive symptom [1] | TEAE leading to study discontinuation: Aggression [1] | TEAE leading to study discontinuation: Agitation [1] | TEAE leading to study discontinuation: Cardiac disorders [1] | TEAE leading to study discontinuation: Dizziness [1]
34.3%: TEAE: dizziness (84 mg, double-blind phase)
